Laboratory results: patent US20080220416A1, “Compositions for Inhibiting Cell Growth and Inducing Apoptosis in Cancer Cells and Methods of Use Thereof” (THE BOARD OF TRUSTEES OF THE UNIVERSITY OF ILLINOI, priority 2004, published 2008)
Square brackets hold non-standard residues; d marks the D form. Peptide text beside a SMILES is read from it. * marks the point of attachment. Nle = CCCC[C@H](N)C(=O)O; Cbz = O=C(OCc1ccccc1)*

How the values were obtained:
[1] = system: CaSki human cervical cancer cells; assay: Apoptosis of CaSki cells (Annexin V flow cytometry, caspase 3 Western blot); assay type: cell-based
Experimental: For the apoptosis measurement assay, the transformed CaSki human cervical cancer cells were treated with DMSO, or 25 μM, 50 μM or 100 μM cisplatin for 24 hours. After cisplatin treatment, the cells were collected and stained with fluorescein-conjugated annexin V and propidium iodide, using the APO TARGET Annexin-V FITC Apoptosis Kit (BioSource International, Inc., Camarillo, Calif.) according to the manufacturer's instructions. After the staining, the cells were sorted by flow cytometry with a FACScan instrument (Becton-Dickinson), Annexin-V positive stained cells were counted as apoptotic cells. Cells that were propidium iodide positive but annexin V negative were not counted as apoptotic cells.
To determine whether z-Leu-Leu-Nle-CHO induces cell death via apoptosis, CaSki cells were treated with various concentrations of z-Leu-Leu-Nle-CHO for 18 h and then either stained with Annexin-V-FITC as described above, or subject to Western blot analysis using antibody to both the pro-enzyme and active form of caspase-3 (Santa Cruz Biotechnology, Santa Cruz, Calif.) as described above.

NOXA = assay: Western blot of NOXA after proteasome inhibitors in normal melanocytes; assay type: cell-based, human; conditions: 18 hrs
From the text: A panel of melanoma cells were used to assess the effect of bortezomib on pro-apoptotic proteins. RJ002L, C8161, MUM2B and SK-MeI-28 melanoma cells, as well as two normal melanocyte cultures (MC-010 and MC-012) were examined. Prior to testing, the RJ002L melanoma cell lines were maintained in RPMI supplemented with 10% FBS. Late passage melanoma cell lines (C8161, MUM2B and SK-Me1028) were utilized as previously described (Welch D et al., 1991, Int J Cancer 47:227-237; Bittner M et al., 2000, Nature 406:536-540). Normal human melanocytes were isolated from neonatal foreskins and cultured as previously described (Qin J et al., 2004, Mol Cancer Ther 3:895-902). Proliferating cells were examined by Western blot analysis before and after 18 hrs of exposure to bortezomib (1 μM). Antibodies were obtained as follows: Bad (SC-8044), Bcl-2 (SC-7382), Bcl-xL (SC-634), Mcl-1 (SC-819), Bak (SC-832) from Santa Cruz Biotechnology (Santa Cruz, Calif.); NOXA (OP180) from Calbiochem; Bid, Bim and PUMA from Cell Signaling (Beverly, Mass.); BAX from Upstate (Charlottesville, Va.); and β-actin from ICN (Irvine, Calif.). For the Western blot analysis, whole cell extracts were prepared as previously described (Denning M et al., 1998, J Biol Chem 273:29995-30002). Briefly, cells were harvested by scraping monolayers and washed with PBS. Cell pellets were resuspended in CHAPS buffers containing a protease inhibitor cocktail. Extracts were vigorously shaken at 4° C. for 15 min followed by centrifugation. Supernatants were collected and protein concentration determined using Bio-Rad reagent. Thirty to 50 microgram protein samples were resolved by SDS-polyacrylamide gel electrophoresis and transferred to polyvinylidene difluoride membrane by electroblotting. Membranes were probed with the various primary antibodies overnight at 4° C., followed by detection using ECL reagents (Amersham Pharmacia Biotech, Piscataway, N.J.) according to manufacturer's instructions.
Two other proteasome inhibitors, lactasytsin and MG-132, were tested for the ability to induce NOXA in melanoma cells and melanocytes. […]

5′-AAGTGTCTGAGGCCAGCAAGA-3′ [Notch-1 siRNA]
effect on cisplatin-induced apoptosis ([1]; cisplatin 25, 50 or 100 μM for 24 hours): significantly enhances cisplatin-induced apoptosis

CCCC[C@@H](C=O)NC(=O)[C@H](CC(C)C)NC(=O)[C@H](CC(C)C)NC(=O)OCc1ccccc1 [z-Leu-Leu-Nle-CHO, N-benzyloxycarbonyl-leucyl-leucyl-norleucinal] (Cbz-Leu-Leu-[Nle]-aldehyde)
caspase 3 activation ([1]; 18 h): dose-dependent caspase 3 activation
mode of cell death (Annexin V flow cytometry) ([1]; 18 h): primarily apoptotic

CC(C)C[C@H](NC(=O)[C@H](Cc1ccccc1)NC(=O)c1cnccn1)B(O)O [bortezomib, N-(2-pyrazine)carbonyl-L-phenylalanine-L-leucine boronic acid]
NOXA induction (NOXA; MC-010, MC-012, 1 μM): did not exhibit NOXA induction

CC(C)C[C@@H](C=O)NC(=O)[C@H](CC(C)C)NC(=O)[C@H](CC(C)C)NC(=O)OCc1ccccc1 [MG-132, benzoxycarbonyl-Leucyl-Leucyl-Leucyl-aldehyde] (Cbz-Leu-Leu-Leu-aldehyde)
NOXA induction (NOXA; MC-004, MC-005, MC-006, MC-008, 1 μM or 10 μM): no induction of NOXA in any of the normal melanocytes
